Measurements published in ChEMBL document CHEMBL3507680, “University of Dundee, Gates Library screen for HepG2 cell viability”.

Assay: Human HepG2 cell viability assay in 384 well format
Type: toxicity, cell-based
Parameters: dose 125 nL, time 70.5 hour; cytotoxicity at 70.5 h: concentration not given beside the values
Conditions: HepG2 cells, read-out: Inhibition

| SMILES | cytotoxicity at 70.5 h [%] |
| --- | --- |
| O=C(N[C@H]1CC[C@@]2(CCC(=O)N2CC2CC2)CC1)c1cnccn1 | -11 |
| COCCN1C(=O)CC[C@]12CC[C@@H](NC(=O)c1cnccn1)CC2 | -2.82 |
| Cc1cc(C(=O)N2CC[C@@H]3CN(C)S(=O)(=O)[C@@H]3CC2)no1 | -7.25 |
| CC(C)CN1C[C@H]2CCN(C(=O)c3ccccn3)CC[C@H]2S1(=O)=O | -4.38 |
| CCC(=O)N1CCC2(CC1)CC(CC(=O)NC1CC1)c1ccccc1O2 (configuration not stated) | 5.58 |
| O=C(NC1CC1)N1C[C@H]2CN(c3ccccc3)C(=O)[C@H]2C1 | 4.91 |
| CCc1cnc(N2CCC3(CCN(Cc4cccc(C)c4)C3=O)C2)nc1 (configuration not stated) | 1.75 |
| CO[C@@H]1CCN(C(=O)c2cc(C)on2)C[C@@H]1Cc1ccccc1 | 20.3 |
| O=C1CCC2(CCN(Cc3ccsc3)CC2)N1Cc1ccccc1 | -10.3 |
| O=C1[C@H]2CN(C(=O)[C@H]3CCCO3)C[C@H]2CN1CC1CC1 | -5.67 |
| O=C(CCO)N1C[C@H]2CN(c3ccccc3)C(=O)[C@H]2C1 | -8.23 |
| O=C(NCCc1ccccn1)[C@@]12CCO[C@@H]1CCN(CC1CC1)C2 | -5.28 |
| COc1ccc(C[C@H]2CN(C(=O)c3cscn3)CC[C@@H]2OC)cc1 | 49.9 |
| O=C(c1ccoc1)N1CCC2(CC1)C(=O)N(CC1CC1)c1ccccc12 | -2.01 |
| O=C([C@H]1CCCO1)N1CCC2(CC1)C(=O)N(CC1CC1)c1ccccc12 | -1.06 |
| CC(=O)N1CCC2(C1)C(=O)N(CC1CC1)c1ccccc12 (configuration not stated) | -8.89 |
| Cc1cccc(CN2CCc3nnc(CN(C)C)n3CC2)n1 | -10.7 |
| O=C([C@@H]1CCO[C@@H]2CCN(Cc3ccco3)C[C@H]21)N1CCCCO1 | -9.33 |
| CN(C)C(=O)[C@@H]1CCO[C@@H]2CCN(c3ncccn3)C[C@H]21 | -15.3 |
| COCC1CN(Cc2c(C)noc2C)Cc2cn(C)nc21 (configuration not stated) | 10.9 |
| CNC(=O)c1nc2c(s1)CCN(C(=O)c1cccc(OC)c1)CC2 | -10 |
| Cc1nc(CN2CCOC3(CCCN(c4nccs4)C3)C2)cs1 (configuration not stated) | 4.12 |
| CC(=O)NCC(=O)N1Cc2ccnn2CC(COCCN(C)C)C1 (configuration not stated) | -6.24 |
| Cc1ccc(C(=O)N2CCC3(CC2)CC(c2ccccc2)C(=O)N3)o1 (configuration not stated) | -5.53 |
| c1ccc(CN2CCOC3(CCCN(c4nccs4)C3)C2)cc1 (configuration not stated) | -7.62 |
| Cn1cc(CN2CCN3C[C@H](Oc4cccnc4)C[C@H]3C2)cn1 | -1.85 |

| SMILES | cytotoxicity at 70.5 h [%] |
| --- | --- |
| Cn1cccc1C(=O)N1CC[C@H]2[C@H](CO[C@H]2CNS(C)(=O)=O)C1 | -4.35 |
| Cc1oncc1C(=O)N1CC[C@H]2[C@H](CO[C@@H]2CNS(C)(=O)=O)C1 | -5.2 |
| CS(=O)(=O)NC[C@@H]1OC[C@H]2CN(C(=O)c3ccccc3)CC[C@H]21 | 15.9 |
| O=C1CCCN1Cc1ncn2c1CN(S(=O)(=O)c1cccs1)CCC2 | -1.28 |
| CN(C)CCN1CCOCC2(CCCN(C(=O)c3cccc(O)c3)C2)C1 (configuration not stated) | -2.03 |
| Cc1occc1C(=O)N1CC[C@@H]2[C@@H](CO[C@H]2CNS(C)(=O)=O)C1 | -1.5 |
| O=C(NC1CC1)[C@@H]1CCO[C@@H]2CCN(C3CCCC3)C[C@H]21 | -0.698 |
| Cc1nc([C@H]2C[C@@H]3CCN(Cc4cnn(C)c4)C[C@H]3O2)sc1C | -1.71 |
| COCCN1CCC2(CCCN(C(=O)c3ccoc3C)C2)C1=O (configuration not stated) | -1.73 |
| CC(C)N(C)C(=O)C1=NOC2(CCN(C(=O)c3ccncc3)C2)C1 (configuration not stated) | -8.56 |
| O=C1N(Cc2ccc(Cl)cc2)CCC12CCCNC2 (configuration not stated) | -12.9 |
| O=C1N(Cc2cccc(Cl)c2)CCC12CCCNC2 (configuration not stated) | -12.1 |
| CC(C)NC(=O)N1CCc2c(CNc3ncccn3)cncc2C1 | -3.35 |
| CNC(=O)N1CC[C@H]2N(C)CC[C@@]2(C(=O)N2CCOCC2)CC1 | -4.42 |
| O=C(CC1CCCC1)N1CCC2(CCN2Cc2ccc(F)cc2)C1 (configuration not stated) | 1.62 |
| O=C1Nc2ccccc2C12CCN(Cc1nccs1)CC2 | -1.05 |
| COc1ccc(C[C@H]2CNCC[C@H]2OC)cc1 | -6.44 |
| CCN1C[C@H]2[C@@H](C1)N(C(=O)Cc1ccsc1)CC[C@H]2OC | -7.9 |
| CS(=O)(=O)N1CC2(CCN(C(=O)c3ccncc3)CC2)c2ccccc21 | -6.91 |
| COCCN1CCC2(CC1)CC(NC(=O)COC)c1ccccc1O2 (configuration not stated) | -7.59 |
| CC(C)NC(=O)N1CCC2(CCC(=O)N2CCN2CCCC2)CC1 | -9.28 |
| Cc1cccc(CN2CC[C@H]3[C@@H]2CC(=O)N3CC2CC2)n1 | -9.45 |
| COCCN1CCC2(CC1)CC(NC(=O)C(C)C)c1ccccc1O2 (configuration not stated) | -4.05 |
| Cc1cnc(N2CCC3(CCCN3C(=O)c3ccco3)CC2)nc1 | -2.74 |
| Cc1cccc(CN2CCC3(CCN(c4ncccn4)CC3)C2=O)c1 | 1.2 |
| CN(C)CC(=O)N1CC2(CCN(C(=O)Nc3ccccc3)C2)C1 | 22.9 |

| SMILES | cytotoxicity at 70.5 h [%] |
| --- | --- |
| O=C(c1ccco1)N1CCCC12CCN(c1ncccn1)CC2 | -7.14 |
| COc1ccc(C[C@H]2CN(C(=O)c3ccc(C)nc3)CC[C@@H]2OC)cc1 | -2.92 |
| COCCN1CCCC2(CCC(=O)N2Cc2cccnc2)C1 (configuration not stated) | 28.9 |
| Cc1cccc(CN2C[C@@H]3CN(C(=O)c4cnccn4)C[C@@H]3C2=O)n1 | -0.986 |
| Cc1cccc(CN2CCCn3c(nnc3CN3CCCC3=O)C2)n1 | -9.11 |
| COc1ccc(CN2CCC3(CC2)CCN(CC(=O)N(C)C)C3=O)cc1 | -16.7 |
| O=C(O)[C@]12CCCN(Cc3cccs3)C[C@H]1CN(c1ncccn1)C2 | -9.42 |
| Cc1ccc(CN2CCO[C@@H]3C[C@@H](C(=O)NC(C)C)C[C@H]32)o1 | -8.04 |
| CC(C)NC(=O)[C@H]1C[C@@H]2[C@@H](C1)OCCN2Cc1ccco1 | -8.12 |
| COc1ccc(CN2CCO[C@@H]3C[C@@H](C(=O)NC(C)C)C[C@H]32)cc1 | -5.46 |
| O=C(O)[C@]12CCCN(Cc3ccoc3)C[C@H]1CN(c1ncccn1)C2 | -6.33 |
| O=C1NC(c2ccccc2)=N[C@@]12CC[C@@H]1CN(CC3CC3)C[C@@H]12 | -10.6 |
| Cc1ccc(CN2CCc3ncnc(OC(C)C)c3CC2)s1 | -6.82 |
| CC(C)NC(=O)[C@H]1C[C@@H]2[C@@H](C1)OCCN2Cc1nccs1 | -4.27 |
| O=C(C1=CCCC1)N1CCC[C@]2(C[C@@H](OCc3ccccn3)CO2)C1 | -15.2 |
| COc1ccc(CN2CCn3cc(CNC(=O)C4CCC4)nc3C2)cc1 | 7.38 |
| Cn1nnc2c1CCN(C(=O)C1CC1)C2COCCN1CCCC1 (configuration not stated) | -3.87 |
| Cc1ccc(CN2CCn3c(CNC(=O)c4cccn4C)cnc3C2)s1 | -10.3 |
| Cc1noc(C)c1CN1CCCC2(C1)CN(c1nccs1)CCO2 (configuration not stated) | -2.38 |
| Cc1ccc(CN2C[C@@H]3CCCO[C@@H]3[C@H](NS(C)(=O)=O)C2)o1 | -9.45 |
| Cc1noc(C)c1CN1CCOC2(CCCN(c3nncs3)C2)C1 (configuration not stated) | -4.97 |
| Cc1noc(C)c1CN1CCOC2(CCCN(c3ncccn3)C2)C1 (configuration not stated) | -5.7 |
| CC(=O)N1CC(=O)N(c2ccsc2)CC12CCN(Cc1ccccn1)C2 (configuration not stated) | -6.8 |
| Cc1noc(C)c1CN1C[C@@H]2CCCO[C@@H]2[C@H](NS(C)(=O)=O)C1 | -9.8 |
| O=C(c1ccoc1)N1CCO[C@]2(CCC[C@@H]2COCc2cccnc2)C1 | -1.92 |
| COCC1CC2(CCN(Cc3nccn3C)CC2)CN1c1ncccn1 (configuration not stated) | -0.457 |

| SMILES | cytotoxicity at 70.5 h [%] |
| --- | --- |
| CN1CCOCC2(CCCN(C(=O)c3cn(C)cn3)C2)C1 (configuration not stated) | 0.515 |
| COC[C@H]1CNC(=O)[C@@H]2CCN(Cc3ccc(F)cc3)CC[C@H]12 | -1.94 |
| COCC1CN(Cc2ccc(F)cc2)Cc2nnn(CC3CC3)c21 (configuration not stated) | 0.526 |
| CN(C)C(=O)CO[C@H]1CN(Cc2cccc(F)c2)[C@@H]2CCCO[C@H]12 | -0.497 |
| COCCN1CC[C@@H]2O[C@@H](COCC(=O)N3CCCC3)CC[C@@H]21 | -3.26 |
| Cc1ccc(CC(=O)N2Cc3nccn3CC(CN(C)C)C2)cc1 (configuration not stated) | -13.3 |
| c1ccc(N2CCCC3(COCCN(c4nccs4)C3)C2)nc1 (configuration not stated) | -0.38 |
| O=C(c1n[nH]c2c1CN(C1CCOCC1)CC2)N1CCCC1 | -6.32 |
| O=C(NCCc1ccccn1)[C@@]12CCO[C@@H]1CCN(C1CCC1)C2 | -6.9 |
| CN(C)C1COC2(CCN(Cc3ccc4c(c3)OCO4)CC2)C1 (configuration not stated) | 2.59 |
| Cc1cccc(CN2CCc3nnc(CN4CCCCC4)n3CC2)n1 | -5.9 |
| Cc1ccc(CN2CCCC3(COCCN(Cc4c[nH]nn4)C3)C2)s1 (configuration not stated) | 19.3 |
| COCC(=O)N1Cc2ccnn2CC(COCCN(C)C)C1 (configuration not stated) | -3.25 |
| Cn1cc(CN2CCCC3(COCCN(Cc4c[nH]nn4)C3)C2)cn1 (configuration not stated) | 0.634 |
| CC(=O)N1C[C@H]2CCCC(N3CCN(c4ncccn4)CC3)[C@H]2C1 (some centres not stated) | 11.4 |
| CN(C)CCN1CCOCC2(CCCN(C(=O)c3cccn3C)C2)C1 (configuration not stated) | 0.0252 |
| CN(C)CCN1CCOCC2(CCCN(C(=O)c3ccccc3)C2)C1 (configuration not stated) | -2.82 |
| Cc1ccc(O[C@@H]2C[C@H]3CN(Cc4nccn4C)CCN3C2)cc1 | -4.55 |
| O=C(CC1CC1)N[C@@H]1CN(Cc2cccnc2)C[C@@H]2CCCO[C@@H]21 | -4.07 |
| COCC1CC2(CCN(CC3CC3)CC2)CN1c1ncccn1 (configuration not stated) | -3.59 |
| c1cc2nc(C3CCN(CC4CC4)CC3)nn2cc1N1CCCC1 | -4.49 |
| CN(C)Cc1cnc2n1CCN(Cc1ccsc1)CC2 | -2.43 |
| c1cncc(C[C@H]2[C@H](N3CCOCC3)CCN2Cc2cccs2)c1 | -5.01 |
| Cn1ncc2c1CN(Cc1cccnc1)CC2COCC1CC1 (configuration not stated) | -2.46 |
